# Reference: patent US11298314B2, “Injectable composition for localized fat reduction without pain, edema, and side effects, and method for preparing same” (AMI PHARM CO., LTD., priority 2017, dated 2022)
# “Also recorded” adds a separate entry of the source.
# Experiments:
# sole of the rat paws = assay: Measurement of skin lesion (erythema) on rat paw; format: in vivo, Sprague Dawley rats; details: for skin lesion (erythema) in words: 2 hours after administration;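 for grade of skin lesion (erythema), 1 hour after administration: grades − to ++++ mean no to extremely severe erythema versus before injection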;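 for grade of skin lesion (erythema), 2 hours after administration: grades − to ++++ mean no to extremely severe erythema versus before injection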;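 for grade of skin lesion (erythema), Immediately after administration: grades − to ++++ mean no to extremely severe erythema versus before injection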
# Procedure, shortened: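 Male Sprague Dawley rats (6 weeks, 170–200 g) received 0.1 ml test composition or PBS injected into the paw. Paw thickness measured by caliper before, immediately after, and 1 or 2 h post-injection; sole lesions photographed and graded 0–4.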
# 3T3-L1 adipocytes = assay: Lipolysis assay (glycerol release); format: cell-based; details: 48 hours; listed as DCA single
# Description: The glycerol activity assay was performed with the test materials to determine whether the cell death in the MTT assay was due to necrosis or lipolysis. Glycerol is a specific marker that increases when fat breaks down. Abcam Lipolysis Assay Kit (Colorimetric) was used according to the manufacturer's manual, and the method of the test was as follows: […] And then the lysis was induced. […] After adding the glycerol assay complex (50 μl) thereto, the solution was incubated at room temperature for 30 minutes. Absorbance was measured at OD 570 (using standard curve for absolute determination).
# [1] = Formulation stability of PPC injectable preparations: property, transparency, particle size, pH; details: based on PPC 5.0%
# paw of the rats = assay: Rat paw edema; format: in vivo, Sprague Dawley rats; details: for degree of edema in words: 2 hours after administration, rat paw; for degree of edema, 1 hour after administration / degree of edema, 2 hours after administration / degree of edema, Immediately after administration: 0.1 ml into rat paw
# Procedure, shortened: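 Male Sprague Dawley rats (6 weeks old, 170–200 g) received 0.1 ml of PBS or test composition into the paw. Paw thickness measured by caliper before, immediately after, and 1 or 2 h post-injection; edema graded 0–4, with injection-site skin lesions photographed.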
# [2] = tested on: Caspase 3 in 3T3-L1 adipocytes; assay: Caspase 3 activity assay; format: cell-based
# Description: The Caspase 3 activity assay was performed with the test materials to determine whether the cell death in the result of MTT assay was due to necrosis or apoptosis. The Caspase 3 specifically increases when apoptosis occurs and is a marker of apoptosis. […] The cells were then treated with 50 ul of cell lysis buffer (10 mM Tris-HCl, 10 mM NaH2PO4/NaHPO4, pH 7.5, 130 mM NaCl, 1% Triton X-100 and 10 mM sodium pyrophosphate) and left at 4° C. for […]. The supernatant was collected by centrifugation at 1000× rpm for 1 minute, and protein quantification was performed by BCA method. The 50 μl of reaction buffer (4 mM HEPES, pH 7.5, 10% glycerol, 2 mM dithiothreitol) and 0.5 μl of 4 mM DEVD-p-NA were added to each sample and reacted at 37° C. for 1 hour. Then wavelength was measured with a […] at 405 nm.
# inguinal fat pad = details: 0.2 ml s.c. once into inguinal fat pad, 8 days post-injection; listed as DCA single composition
# [3] = tested on: tissues of the injected area (rat paw); assay: H&E staining histological test (inflammation) of injected rat paw; format: in vivo, Sprague Dawley rats; details: bile acid single composition 1.0% (w/v), injected rat paw
# Description: The tissues of the injected area were dissected, fixed with 10% formalin, and then the specimen was prepared and images were captured using an optical microscope. The degree of inflammation was evaluated as follows.
# [4] = bile acid single composition 1.0% (w/v)
# [5] = bile acid single composition 2.5% (w/v)
# [6] = bile acid single composition 5.0% (w/v)
# [7] = bile acid single composition 7.5% (w/v)
structure (smiles),measurement,setting,value
"C[C@H](CCC(=O)O)[C@H]1CC[C@H]2[C@@H]3CC[C@@H]4C[C@H](O)CC[C@]4(C)[C@H]3C[C@H](O)[C@]12C [DCA, (4R)-4-[(3R,5R,8R,9S,10S,12S,13R,14S,17R)-3,12-dihydroxy-10,13-dimethyl-2,3,4,5,6,7,8,9,11,12,14,15,16,17-tetradecahydro-1H-cyclopenta[a]phenanthren-17-yl]pentanoic acid]",skin lesion (erythema) in words,sole of the rat paws; listed as DCA 1.0%,Moderate
same,skin lesion (erythema) in words,sole of the rat paws; listed as DCA 2.5%,“severe” and “extremely severe”
same,"grade of skin lesion (erythema), 1 hour after administration",sole of the rat paws; [4],++
same,"grade of skin lesion (erythema), 2 hours after administration",sole of the rat paws; [4],++
same,"grade of skin lesion (erythema), Immediately after administration",sole of the rat paws; [4],++
same,"grade of skin lesion (erythema), 1 hour after administration",sole of the rat paws; [5],++++
same,"grade of skin lesion (erythema), 2 hours after administration",sole of the rat paws; [5],+++
same,"grade of skin lesion (erythema), Immediately after administration",sole of the rat paws; [5],++
same,"grade of skin lesion (erythema), 1 hour after administration",sole of the rat paws; [6],++++
same,"grade of skin lesion (erythema), 2 hours after administration",sole of the rat paws; [6],++++
same,"grade of skin lesion (erythema), Immediately after administration",sole of the rat paws; [6],++
same,"grade of skin lesion (erythema), 1 hour after administration",sole of the rat paws; [7],++++
same,"grade of skin lesion (erythema), 2 hours after administration",sole of the rat paws; [7],++++
same,"grade of skin lesion (erythema), Immediately after administration",sole of the rat paws; [7],++
same,glycerol release / cytolytic activity,3T3-L1 adipocytes,slightly higher cytolytic activity than at 24 hours; also recorded: slightly higher cytolytic activity than that of 24 hours
same,bile acid concentration at which stable injectable preparations can be made,[1],≥ 2.1%
same,degree of edema in words,paw of the rats; listed as DCA 1.0%,severe
same,degree of edema in words,paw of the rats; listed as DCA 2.5%,“severe” and “extremely severe”
same,"degree of edema, 1 hour after administration",paw of the rats; [4],"+++ (severe edema [+++, (the degree of swelling was 40-60% compared to before the injection)])"
same,"degree of edema, 2 hours after administration",paw of the rats; [4],"+++ (severe edema [+++, (the degree of swelling was 40-60% compared to before the injection)])"
same,"degree of edema, Immediately after administration",paw of the rats; [4],"++ (moderate edema [++, (the degree of swelling was 20-40% compared to before the injection)])"
same,"degree of edema, 1 hour after administration",paw of the rats; [5],"++++ (extremely severe edema [++++, (the degree of swelling was 60% or more compared to before the injection)])"
same,"degree of edema, 2 hours after administration",paw of the rats; [5],"++++ (extremely severe edema [++++, (the degree of swelling was 60% or more compared to before the injection)])"
same,"degree of edema, Immediately after administration",paw of the rats; [5],"++ (moderate edema [++, (the degree of swelling was 20-40% compared to before the injection)])"
same,"degree of edema, 1 hour after administration",paw of the rats; [6],"++++ (extremely severe edema [++++, (the degree of swelling was 60% or more compared to before the injection)])"
same,"degree of edema, 2 hours after administration",paw of the rats; [6],"++++ (extremely severe edema [++++, (the degree of swelling was 60% or more compared to before the injection)])"
same,"degree of edema, Immediately after administration",paw of the rats; [6],"++ (moderate edema [++, (the degree of swelling was 20-40% compared to before the injection)])"
same,"degree of edema, 1 hour after administration",paw of the rats; [7],"++++ (extremely severe edema [++++, (the degree of swelling was 60% or more compared to before the injection)])"
same,"degree of edema, 2 hours after administration",paw of the rats; [7],"++++ (extremely severe edema [++++, (the degree of swelling was 60% or more compared to before the injection)])"
same,"degree of edema, Immediately after administration",paw of the rats; [7],"++ (moderate edema [++, (the degree of swelling was 20-40% compared to before the injection)])"
same,caspase-3 activity,[2]; after 48 hours,returned to pretreatment levels
same,caspase-3 activity,[2]; up to 24 hours,some caspase-3 activity
same,"inflammation at the site of administration, dermal and epidermal tissues",inguinal fat pad,severe inflammation was induced
same,"Inflammation (H&E), BA % (w/v) 1.0",[3],+++
